Tests used:
[1] = biological target: T1, 3',5'-cyclic-AMP phosphodiesterase 4A (Homo sapiens, UniProt P27815); experiment: Inhibitory concentration against human PDE4A isoform using a construct representing the common region of spliced variants expressed as GST-fusion protein in Sf9 cells
Target sequence in this assay (P27815 whole entry, looked up, stated change not applied, the tested form may be a part, canonical isoform): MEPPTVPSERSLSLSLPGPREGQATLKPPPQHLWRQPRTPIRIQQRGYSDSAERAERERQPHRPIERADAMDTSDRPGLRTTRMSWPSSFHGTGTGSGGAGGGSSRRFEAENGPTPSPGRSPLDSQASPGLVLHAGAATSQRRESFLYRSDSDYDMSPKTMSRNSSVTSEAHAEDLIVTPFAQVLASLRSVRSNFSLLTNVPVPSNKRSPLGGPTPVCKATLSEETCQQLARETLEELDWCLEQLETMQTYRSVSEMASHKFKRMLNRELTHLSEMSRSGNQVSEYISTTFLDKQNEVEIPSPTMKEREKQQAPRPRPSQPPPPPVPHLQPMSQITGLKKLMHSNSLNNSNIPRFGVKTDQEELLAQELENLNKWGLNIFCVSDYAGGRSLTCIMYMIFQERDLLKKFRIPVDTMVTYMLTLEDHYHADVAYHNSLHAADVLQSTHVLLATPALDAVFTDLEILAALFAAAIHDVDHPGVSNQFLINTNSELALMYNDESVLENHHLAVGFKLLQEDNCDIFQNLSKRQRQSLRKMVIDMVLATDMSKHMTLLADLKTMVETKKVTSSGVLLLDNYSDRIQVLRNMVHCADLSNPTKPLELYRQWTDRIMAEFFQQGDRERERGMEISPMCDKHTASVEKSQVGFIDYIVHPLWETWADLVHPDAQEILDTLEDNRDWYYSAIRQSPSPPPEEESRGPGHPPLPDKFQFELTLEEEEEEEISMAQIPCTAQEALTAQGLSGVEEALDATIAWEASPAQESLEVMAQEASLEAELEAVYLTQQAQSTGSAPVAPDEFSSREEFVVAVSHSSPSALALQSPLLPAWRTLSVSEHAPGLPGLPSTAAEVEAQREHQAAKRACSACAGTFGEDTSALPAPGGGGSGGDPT

[2] = Half life of compound was determined in squirrel monkey; assay type: ADME; conditions: in vivo
[3] = Half life of compound was determined in rat; assay type: ADME, organism-based; conditions: in vivo
[4] = Ascaris-induced bronchoconstriction in anesthetized squirrel monkey pretreated with 3 mg/kg peroral dose for 4 hr; assay type: functional; conditions: route oral
Ovis aries [5] = experiment: Ascaris-induced early phase bronchoconstriction in conscious sheep administered intravenously at 2 mg/kg; assay type: functional; conditions: route intravenous
Cavia porcellus = experiment: Ovalbumin induced bronchoconstriction in conscious guinea pig pretreated with 1 mg/kg intraperitoneal dose for 4 hr; assay type: functional
Ovis aries [6] = experiment: Ascaris-induced late phase bronchoconstriction in conscious sheep administered intravenously at 2 mg/kg; assay type: functional; conditions: route intravenous
[7] = biological target: T1, 3',5'-cyclic-AMP phosphodiesterase 4A; experiment: Inhibitory concentration of compound against LPS- induced TNF-alpha production in whole human blood assay; assay type: functional, tissue-based
Target sequence in this assay (P27815 whole entry, the tested form may be a part, canonical isoform): as the sequence (P27815 whole entry, looked up, stated change not applied, the tested form may be a part, canonical isoform) above

Mustela putorius furo = species: Mustela putorius furo; experiment: Emetic effect in ferrets; assay type: functional
[8] = Bioavailability; assay type: ADME, organism-based; conditions: eutheria, in vivo
[9] = Half-life period was determined; assay type: ADME
[10] = Ascaris-induced bronchoconstriction in anesthetized squirrel monkey pretreated with 5 mg/kg intravenously for 30 min; assay type: functional; conditions: route intravenous

Row | IC50 [1] [nM] | IC50 [7] [nM] | SMILES | also measured
1 | 4.2 | 670 | [O-][n+]1ccc(CC(c2ccc(C(O)(C(F)(F)F)C(F)(F)F)cc2)c2ccc(OC(F)F)c(OC(F)F)c2)cc1 (stereo not given) | half-life [2]: 2880 min; half-life [3]: > 1440 min; Efficacy [4]: 96%; Efficacy (Ovis aries [5]): 85%; Efficacy (Cavia porcellus): 58%; Efficacy (Ovis aries [6]): 95%; Dose (Mustela putorius furo): >3 mg/kg
2 | 24 | 77000 | O=C(O)c1ccc(C(Cc2cc[n+]([O-])cc2)c2ccc(OC(F)F)c(OC(F)F)c2)cc1 (stereo not given) | –
3 | 4.6 | 410 | CCNC(=O)OCc1ccc(C(Cc2cc[n+]([O-])cc2)c2ccc(OC(F)F)c(OC(F)F)c2)cc1 (stereo not given) | –
4 | 11 | 4500 | FC(F)Oc1ccc(C(Cc2ccncc2)c2ccc(Cl)cc2)cc1OC(F)F (stereo not given) | –
5 | 772 | – | Clc1ccc(C(Cc2ccncc2)c2ccc3c(c2)OCCO3)cc1 (stereo not given) | –
6 | 8.6 | 1000 | CN(C)C(=O)c1ccc(C(Cc2cc[n+]([O-])cc2)c2ccc(OC(F)F)c(OC(F)F)c2)cc1 (stereo not given) | –
7 | 3.1 | 75000 | Cc1ccccc1C(=O)NS(=O)(=O)c1ccc(C(Cc2cc[n+]([O-])cc2)c2ccc(OC(F)F)c(OC(F)F)c2)cc1 (stereo not given) | –
8 | 2.2 | 6500 | CC(C)(C(=O)O)c1cccc(-c2ccc(C(Cc3cc[n+]([O-])cc3)c3ccc(OC(F)F)c(OC(F)F)c3)cc2)c1 (stereo not given) | –
9 | 0.5 | 1900 | [O-][n+]1ccc(CC(c2ccc(COc3ccc(F)cc3)cc2)c2ccc(OC(F)F)c(OC(F)F)c2)cc1 (stereo not given) | –

More lines, now with the values behind:

Row | SMILES | IC50 [1] [nM] | IC50 [7] [nM] | also measured
10 | Clc1ccc(C(Cc2ccncc2)c2ccc3c(c2)OCO3)cc1 (stereo not given) | > 1000 | – | –
11 | O=C(O)Cc1ccc(C(Cc2cc[n+]([O-])cc2)c2ccc(OC(F)F)c(OC(F)F)c2)cc1 (stereo not given) | 53 | 58000 | –
12 | FC(F)Oc1ccc(C(Cc2ccncc2)c2ccc(Cl)cc2)cc1OC1CCCC1 (stereo not given) | 13 | 8700 | –
13 | [O-][n+]1ccc(CC(c2ccc(C3(O)CC3)cc2)c2ccc(OC(F)F)c(OC(F)F)c2)cc1 (stereo not given) | 16 | 1700 | –
14 | Cc1ccc(C(=O)c2ccc(C(Cc3cc[n+]([O-])cc3)c3ccc(OC(F)F)c(OC(F)F)c3)cc2)nc1 (stereo not given) | 7.3 | 890 | –
15 | COc1ccc(C(Cc2ccncc2)c2ccc(Cl)cc2)cc1OC1CCCC1 (stereo not given) | 2.8 | 12000 | –
16 | [O-][n+]1ccc(CC(c2ccc(C3(O)CCC3)cc2)c2ccc(OC(F)F)c(OC(F)F)c2)cc1 (stereo not given) | 7.5 | 380 | bioavailability [8]: 100%; half-life [9]: 120 min
17 | CC(O)c1ccc(C(Cc2cc[n+]([O-])cc2)c2ccc(OC(F)F)c(OC(F)F)c2)cc1 (stereo not given) | 45 | 510 | –
18 | COc1ccc([C@H](Cc2ccncc2)c2ccccc2)cc1OC1CCCC1 [CDP840] | 4.3 | 16000 | half-life [2]: < 60 min; half-life [3]: < 30 min; Efficacy [10]: 64%; Dose (Mustela putorius furo): 30 mg/kg
19 | COc1ccc(C(Cc2ccncc2)c2ccc(Cl)cc2)c(F)c1OC1CCCC1 (stereo not given) | 110 | 98000 | –
20 | CC(C)(O)c1ccc(C(Cc2cc[n+]([O-])cc2)c2ccc(OC(F)F)c(OC(F)F)c2)cc1 (stereo not given) | 9.6 | 360 | bioavailability [8]: 55%; half-life [9]: 60 min
21 | [O-][n+]1ccc(CC(c2ccc(CO)cc2)c2ccc(OC(F)F)c(OC(F)F)c2)cc1 (stereo not given) | 44 | 470 | –

Source: ChEMBL document CHEMBL1135123, “Discovery of L-791,943: a potent, selective, non emetic and orally active phosphodiesterase-4 inhibitor” (Bioorg Med Chem Lett, 2002)
